Results: ChEMBL document CHEMBL1201862, “PubChem BioAssay data set” (2004)
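Results reflect a 48-hour exposure of cells in 96-well plates to compound at five concentrations. Abbreviation: GI50, concentration required for 50% inhibition of growth.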 Calls of active or inactive are those of the source. No stated cut-off is given here; in the data, active = GI50 up to about 1.1 µM and inactive = higher.

How the values were obtained:
Test in all cases: NCI-60 cell line screen, 48 h
OVCAR-5 = system: OVCAR-5
SF-295 = system: SF-295
NCI-H460 = system: NCI-H460
UACC-257 = system: UACC-257
CAKI-1 = system: CAKI-1
SW-620 = system: SW-620
SF-268 = system: SF-268
LOX IMVI = system: LOX IMVI
A498 = system: A498
SK-MEL-5 = system: SK-MEL-5
UACC-62 = system: UACC-62
HCC 2998 = system: HCC 2998
OVCAR-8 = system: OVCAR-8
SK-MEL-28 = system: SK-MEL-28
IGROV-1 = system: IGROV-1
Hs-578T = system: Hs-578T
RPMI-8226 = system: RPMI-8226
ACHN = system: ACHN
TK-10 = system: TK-10

Row | Compound | GI50 (OVCAR-5) | GI50 (SF-295) | GI50 (NCI-H460) | GI50 (UACC-257) | GI50 (CAKI-1) | GI50 (SW-620) | GI50 (SF-268) | GI50 (LOX IMVI) | GI50 (A498) | GI50 (SK-MEL-5) | GI50 (UACC-62) | GI50 (HCC 2998) | GI50 (OVCAR-8) | GI50 (SK-MEL-28) | GI50 (IGROV-1) | GI50 (Hs-578T) | GI50 (RPMI-8226) | GI50 (ACHN) | GI50 (TK-10)
1 | CCOC(=O)c1cc(C2CCN(CC(C)CC)C2=S)c(-c2cc(C)no2)[nH]1 (stereo not drawn) | > 100 µM (inactive) | > 100 µM (inactive) | > 100 µM (inactive) | > 100 µM (inactive) | > 100 µM (inactive) | > 100 µM (inactive) | 69.3 µM (inactive) | 41.8 µM (inactive) | > 100 µM (inactive) | 48.4 µM (inactive) | 72.3 µM (inactive) | > 100 µM (inactive) | 68.4 µM (inactive) | > 100 µM (inactive) | > 100 µM (inactive) | 89.7 µM (inactive) | 66.1 µM (inactive) | – | –
2 | COc1cccc(-c2cc(O)c3c(C)cc(C)nc3n2)c1 | 2.57 µM (inactive) | 0.493 µM (active) | 0.455 µM (active) | – | – | 0.333 µM (active) | 0.578 µM (active) | 0.703 µM (active) | 0.419 µM (active) | 0.301 µM (active) | 0.448 µM (active) | 0.682 µM (active) | 0.944 µM (active) | 0.83 µM (active) | 0.486 µM (active) | 0.538 µM (active) | 0.345 µM (active) | 0.555 µM (active) | 40.8 µM (inactive)
3 | C=CCn1c(=O)c(-c2ccccc2)c(O)c2ccccc21 | > 100 µM (inactive) | > 100 µM (inactive) | > 100 µM (inactive) | > 100 µM (inactive) | > 100 µM (inactive) | > 100 µM (inactive) | > 100 µM (inactive) | > 100 µM (inactive) | > 100 µM (inactive) | > 100 µM (inactive) | – | > 100 µM (inactive) | > 100 µM (inactive) | > 100 µM (inactive) | > 100 µM (inactive) | > 100 µM (inactive) | > 100 µM (inactive) | > 100 µM (inactive) | > 100 µM (inactive)
4 | CC1CN=C(N(C(=O)Nc2ccccc2)c2ccc(Cl)c(Cl)c2)S1 (stereo not drawn) | 34.1 µM (inactive) | 45.5 µM (inactive) | 19.3 µM (inactive) | 32.2 µM (inactive) | 27.9 µM (inactive) | 30.5 µM (inactive) | 61 µM (inactive) | 25.9 µM (inactive) | 14.3 µM (inactive) | 18.5 µM (inactive) | – | 24.8 µM (inactive) | 35.6 µM (inactive) | 40.6 µM (inactive) | 41.6 µM (inactive) | 65 µM (inactive) | 41.3 µM (inactive) | 31.6 µM (inactive) | 28.2 µM (inactive)
5 | CCOC(=O)C(=CNc1ccc(S(N)(=O)=O)cc1)C(=O)OCC | > 100 µM (inactive) | > 100 µM (inactive) | > 100 µM (inactive) | > 100 µM (inactive) | > 100 µM (inactive) | > 100 µM (inactive) | > 100 µM (inactive) | > 100 µM (inactive) | > 100 µM (inactive) | > 100 µM (inactive) | – | > 100 µM (inactive) | > 100 µM (inactive) | > 100 µM (inactive) | > 100 µM (inactive) | > 100 µM (inactive) | > 100 µM (inactive) | > 100 µM (inactive) | > 100 µM (inactive)
6 | Nc1nc(Nc2ccc(Cl)cc2)sc1C(=O)c1c[nH]c2ccccc12 | 21.1 µM (inactive) | – | 6.92 µM (inactive) | 7.26 µM (inactive) | – | 15.7 µM (inactive) | 21.4 µM (inactive) | 18.2 µM (inactive) | 7.94 µM (inactive) | 12 µM (inactive) | 14.9 µM (inactive) | 11.3 µM (inactive) | – | 15.4 µM (inactive) | 17.3 µM (inactive) | 21.6 µM (inactive) | 11.6 µM (inactive) | 12.4 µM (inactive) | 13 µM (inactive)
7 | CCO/C=N\C1=C(C#N)SC2=N/C(=C\c3ccco3)C(=O)N21 | > 100 µM (inactive) | > 100 µM (inactive) | – | > 100 µM (inactive) | > 100 µM (inactive) | > 100 µM (inactive) | > 100 µM (inactive) | > 100 µM (inactive) | > 100 µM (inactive) | > 100 µM (inactive) | – | > 100 µM (inactive) | > 100 µM (inactive) | > 100 µM (inactive) | > 100 µM (inactive) | > 100 µM (inactive) | > 100 µM (inactive) | > 100 µM (inactive) | > 100 µM (inactive)
8 | COc1cc(/C=C2\CCC(C)c3c2nc(N)c(C#N)c3-c2cc(OC)c(OC)c(OC)c2)cc(OC)c1OC (stereo not drawn) | > 100 µM (inactive) | – | – | > 100 µM (inactive) | > 100 µM (inactive) | 81.8 µM (inactive) | 25.7 µM (inactive) | 41.5 µM (inactive) | > 100 µM (inactive) | 71.9 µM (inactive) | > 100 µM (inactive) | – | 13.2 µM (inactive) | > 100 µM (inactive) | 0.984 µM (active) | 18.7 µM (inactive) | 56.2 µM (inactive) | > 100 µM (inactive) | 75.3 µM (inactive)
9 | CNC1C(O)C(OC2C(N)CC(N)C(OC3OC(CN)=CCC3N)C2O)OCC1(C)O (stereo not drawn) | > 100 µM (inactive) | > 100 µM (inactive) | > 100 µM (inactive) | > 100 µM (inactive) | > 100 µM (inactive) | > 100 µM (inactive) | > 100 µM (inactive) | > 100 µM (inactive) | > 100 µM (inactive) | > 100 µM (inactive) | > 100 µM (inactive) | > 100 µM (inactive) | > 100 µM (inactive) | > 100 µM (inactive) | > 100 µM (inactive) | > 100 µM (inactive) | > 100 µM (inactive) | > 100 µM (inactive) | –
10 | CCOC(=O)c1c(C)noc1/N=N/N(CCO)CCO | > 100 µM (inactive) | 23.7 µM (inactive) | 27.9 µM (inactive) | 25.6 µM (inactive) | 61 µM (inactive) | 28.3 µM (inactive) | 54.3 µM (inactive) | 32.4 µM (inactive) | 21.7 µM (inactive) | 15.7 µM (inactive) | 23.9 µM (inactive) | 22.3 µM (inactive) | 38.3 µM (inactive) | 49.1 µM (inactive) | 36.6 µM (inactive) | 63.4 µM (inactive) | – | 29 µM (inactive) | 56.1 µM (inactive)
11 | Cc1nn(CNc2ccc(F)c(Cl)c2)c(=S)n1/N=C/c1ccc(-c2ccc(Cl)cc2Cl)o1 | 19.1 µM (inactive) | 15.7 µM (inactive) | 17.1 µM (inactive) | 22.3 µM (inactive) | 16.8 µM (inactive) | 15.6 µM (inactive) | 16.3 µM (inactive) | 16.6 µM (inactive) | 15.1 µM (inactive) | 16.7 µM (inactive) | – | – | 20.8 µM (inactive) | 19.7 µM (inactive) | 16.7 µM (inactive) | 15.5 µM (inactive) | 14.8 µM (inactive) | 16.6 µM (inactive) | 15.3 µM (inactive)
12 | O=c1n(/N=C/c2ccccc2)c(=O)n2n1C1C=CC2CC1 | > 100 µM (inactive) | > 100 µM (inactive) | > 100 µM (inactive) | > 100 µM (inactive) | > 100 µM (inactive) | > 100 µM (inactive) | > 100 µM (inactive) | > 100 µM (inactive) | > 100 µM (inactive) | > 100 µM (inactive) | > 100 µM (inactive) | – | > 100 µM (inactive) | > 100 µM (inactive) | > 100 µM (inactive) | > 100 µM (inactive) | > 100 µM (inactive) | > 100 µM (inactive) | > 100 µM (inactive)
13 | COc1cc(C2SC(=N)Nc3c2c(C)nn3C(=O)c2ccccc2O)cc(OC)c1OC (stereo not drawn) | > 10 µM (inactive) | 3.51 µM (inactive) | 7.41 µM (inactive) | > 10 µM (inactive) | 6.05 µM (inactive) | > 10 µM (inactive) | 6.71 µM (inactive) | 5.16 µM (inactive) | 5 µM (inactive) | 3.78 µM (inactive) | 2.72 µM (inactive) | – | > 10 µM (inactive) | > 10 µM (inactive) | 2.04 µM (inactive) | 3.57 µM (inactive) | > 10 µM (inactive) | 4.32 µM (inactive) | > 10 µM (inactive)
14 | O=C(CN1CCOCC1)c1ccc2[nH]c(=O)oc2c1 | > 100 µM (inactive) | > 100 µM (inactive) | > 100 µM (inactive) | > 100 µM (inactive) | > 100 µM (inactive) | > 100 µM (inactive) | > 100 µM (inactive) | > 100 µM (inactive) | > 100 µM (inactive) | > 100 µM (inactive) | > 100 µM (inactive) | – | > 100 µM (inactive) | > 100 µM (inactive) | > 100 µM (inactive) | > 100 µM (inactive) | > 100 µM (inactive) | > 100 µM (inactive) | > 100 µM (inactive)
15 | C[C@H](C/C=C/C(C)(C)O)[C@H]1CC[C@@]2(C)[C@@H]3CC[C@H]4C(C)(C)[C@@H](O)CC[C@@]45C[C@@]35CC[C@]12C | 14.4 µM (inactive) | 16.6 µM (inactive) | 23 µM (inactive) | 17.9 µM (inactive) | – | 18.4 µM (inactive) | 1.94 µM (inactive) | 11.7 µM (inactive) | 21 µM (inactive) | – | 26.1 µM (inactive) | – | 14.8 µM (inactive) | 18.8 µM (inactive) | 22.4 µM (inactive) | 11.2 µM (inactive) | 15.8 µM (inactive) | 6.35 µM (inactive) | 13 µM (inactive)
16 | c1cncc(CNc2ncn[nH]2)c1 | > 100 µM (inactive) | > 100 µM (inactive) | > 100 µM (inactive) | > 100 µM (inactive) | > 100 µM (inactive) | > 100 µM (inactive) | > 100 µM (inactive) | > 100 µM (inactive) | > 100 µM (inactive) | > 100 µM (inactive) | > 100 µM (inactive) | – | > 100 µM (inactive) | > 100 µM (inactive) | > 100 µM (inactive) | > 100 µM (inactive) | > 100 µM (inactive) | > 100 µM (inactive) | > 100 µM (inactive)
